“Also recorded” adds a separate entry of the source. Read-outs that look alike come from different tables or passages of the source.
Legend:
α-glucosidase = biological target: T1, α-glucosidase (Saccharomyces cerevisiae, UniProt P53341); experiment: biochemical; details: for inhibition at 200 µg/mL: read-out: α-Glucosidase Inhibitory Activity % Inhibition at 200 µg/mL
T1 construct: purchased Sigma, St. Louis, MO, USA G5003
Description: A colorimetric α-glucosidase assay was carried out by the previously described procedure. Briefly, the sample solution was dissolved in DMSO after the solutions were diluted with a phosphate buffer (100 mM KH2PO4, pH 6.9) become DMSO (10%, v/v) concentration. The substrate, p-nitrophenyl α-D-glucoside (Sigma, St. Louis, USA, CAS No. N1377), (c 1.5 mM), was prepared by dissolving with phosphate buffer. The tested samples (50 uL) were combined with 100 μL of the α-glucosidase enzyme solution (0.35 U/mL, Sigma, St. Louis, MO, USA, CAS. No. G5003), then the mixture was pre-incubated for 10 min at 37 °C. The enzymatic reaction was started by applying substrate (100 μL, c 1.5 mM) into the mixture and incubated at 37 °C for 20 min. The reaction was subsequently terminated by the addition of Na2CO3 (1 mL, c 1 M). The absorption was immediately measured at 405 nm by determining the quantity of p-nitrophenol released from the substrate.

[1] = cytotoxicity / cell viability MTT assay; format: cell-based; details: mouse, RAW 264.7 cells, RAW 264.7, 24 h
Description: (§1) Cell viability studies were evaluated by the MTT (3-[4,5-dimethylthiazol-2-yl]-2,5-diphenyl tetrazolium bromide) assay. In brief, RAW 264.7 cells (5 × 10^4 cells/well) were cultured and incubated in 96-well plates for 24 h. The samples were prepared in DMSO at different concentrations ([…]). The cells were then treated with samples in DMEM medium (10% FBS, […] streptomycin, and 100 IU/mL penicillin at 37 °C in a 5% CO2) for 24 h. The medium was then removed and each well was filled with fresh DMEM containing 0.5 mg/mL MTT solution for 4 h at 37 °C in a 5% CO2. After that, the medium was removed, and the formazan precipitate was dissolved in DMSO [21]. The absorbance was measured at 550 nm on a microplate reader. All processes were performed in triplicate.

RAW 264.7 cells = experiment: cytotoxicity / cell viability MTT assay; format: cell-based
Description: as §1

[2] = tested on: NO production in RAW 264.7 cells; experiment: nitric oxide (NO) production inhibitory activity in LPS-treated RAW 264.7 cells (Griess reaction); format: cell-based; details: for inhibition at 50 µg/mL: read-out: Anti-Inflammatory (NO Production Inhibitory Activity) % Inhibition at 50 µg/mL; for NO production inhibitory activity (in words): RAW 264.7 macrophage cells
Description: The NO inhibitory activity was performed using the same procedure as previously reported. RAW 264.7 (American Type Culture Collection, Manassas, VA, USA) were seeded at 4 × 10^4 cells/well in 96 well plates suspended in 100 μL DMEM supplemented with 10% FBS and incubated at 37 °C 5% CO2 overnight. Cells were incubated with 1 µg/mL LPS for 1 h and treated with various concentrations of sample compounds and vehicle control (DMSO) for 24 h. After 24 h, the NO production inhibitory was determined in the culture supernatant using the Griess reaction by adding 100 µL of Griess reagent in a 96 well plate for 10 min. The determination of nitric oxide was measured at 570 nm with Biochrom EZ Read 400 ELISA microplate reader (Biochrom Ltd., Cambridge, United Kingdom). Additionally, the data were presented as IC50 which was calculated with GraphPad Prism 6.0 software.

[3] = read-out: α-Glucosidase Inhibitory Activity IC50
[4] = Mus musculus, RAW264.7, LPS 1 µg/mL, 24 h

T1 sequence (P53341 whole entry): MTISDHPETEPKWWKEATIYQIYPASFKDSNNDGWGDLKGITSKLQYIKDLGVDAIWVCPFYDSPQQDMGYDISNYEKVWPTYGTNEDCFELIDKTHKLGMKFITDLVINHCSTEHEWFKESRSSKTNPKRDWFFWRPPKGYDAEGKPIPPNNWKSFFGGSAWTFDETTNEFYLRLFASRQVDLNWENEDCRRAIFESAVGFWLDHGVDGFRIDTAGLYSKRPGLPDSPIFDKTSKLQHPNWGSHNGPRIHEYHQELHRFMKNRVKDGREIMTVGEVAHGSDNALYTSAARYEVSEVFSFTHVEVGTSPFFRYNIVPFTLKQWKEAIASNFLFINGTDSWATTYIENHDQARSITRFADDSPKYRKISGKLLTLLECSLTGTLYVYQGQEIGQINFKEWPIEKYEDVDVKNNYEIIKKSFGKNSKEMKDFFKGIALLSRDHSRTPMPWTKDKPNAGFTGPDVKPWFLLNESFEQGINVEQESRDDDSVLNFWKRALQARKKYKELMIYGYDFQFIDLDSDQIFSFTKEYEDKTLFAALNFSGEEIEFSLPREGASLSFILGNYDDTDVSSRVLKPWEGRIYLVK

Structure (SMILES) | inhibition at 200 µg/mL (α-glucosidase) | IC50 (α-glucosidase; [3]) | viability at 24 h, 50 µg/mL [1] | cytotoxicity against RAW 264.7 cells at 50 µg/mL (in words) (RAW 264.7 cells) | Anti-Inflammatory (NO Production Inhibitory Activity) IC50 ([2]; LPS 1 µg/mL, 24 h) | inhibition at 50 µg/mL [2, 4] | NO production inhibitory activity (in words) [2] | IC50 (α-glucosidase) | IC50 ([2]; Mus musculus, RAW264.7, LPS 1 µg/mL, 24 h, read-out: Anti-Inflammatory (NO Production Inhibitory Activity) IC50)
C[C@H]1O[C@H](O[C@H]2[C@H](O)[C@@H](O)[C@@H](O[C@H]3[C@H](O)[C@@H](O)C(O)O[C@@H]3CO)O[C@@H]2CO)[C@H](O)[C@@H](O)[C@@H]1N[C@H]1C=C(CO)[C@@H](O)[C@H](O)[C@H]1O (some centres unmarked) [Acarbose, reference compound] | 95.6% | – | – | – | – | – | – | – | –
O=C1C[C@@H](O)[C@@H](O)c2cccc(O)c21 [Compound 4, (+)-3,4-dihydro-3,4,8-trihydroxy-1(2H)-naphthalenone] | 97.8% | 550 ± 1330 µM | – | – | – | – | – | – | –
COC(=O)C[C@@]12OC(=O)C[C@@H](C)[C@@H]1Oc1cccc(O)c1C2=O (relative stereo) [Compound 1, Daldiniaeschsone A] | 98.7% | – | > 75% | without toxicity; also recorded: no cytotoxicity | inactive | 26.5% | no NO production inhibitory activities | 160 ± 110 µM | –
COC(=O)C[C@@]12OC(=O)C[C@@H](C)[C@@H]1Oc1ccc(-c3ccc4c(c3O)C(=O)[C@]3(CC(=O)OC)OC(=O)C[C@@H](C)[C@@H]3O4)c(O)c1C2=O [Compound 2, Daldiniaeschsone B] | 96.8% | – | – | without toxicity; also recorded: no cytotoxicity | inactive | 36.9% | no NO production inhibitory activities | 230 µM | –
O=C1CC[C@H](O)c2cccc(O)c21 [Compound 3, (+)-regiolone] | 97.8% | 850 ± 1190 µM | – | – | – | – | – | – | –
COc1ccc2c(c1)c(CC(=O)O)c(C)n2C(=O)c1ccc(Cl)cc1 [Indomethacin, reference compound] | – | – | 85 ± 2.92% | – | – | 71% | – | – | 19.6 ± 0.62 µM
C[C@H]1Cc2cccc(O)c2C(=O)O1 [Compound 5, (+)-mellein] | 97.5% | 760 ± 90 µM | – | – | – | – | – | – | –
